The record followed here is patent publication US20250361264A1, “PROTEIN MODIFYING REAGENT” (CANON KABUSHIKI KAISHA, priority 2023, published 2025).

For one experiment, the target named is T1, silk fibroin powder (Bombyx mori, UniProt P05790).
T1 construct: purchased Sigma-Aldrich
Kind of experiment: Evaluation of adsorptivity of groups containing aromatic rings to proteins having β-sheet structures. It is filed as binding. The settings on record: for Adsorption rate to fibroin (%): 0.02 mM, 0.15 mL methanol solution on 10 mg silk fibroin powder, dried, 0.15 mL water, 5 minutes stirring, supernatant absorbance; for Adsorptivity: class of adsorption rate to fibroin. The protocol:
After distillation of methanol by air-drying, 0.15 mL of water was added. After stirring for 5 minutes, the supernatant was collected. The adsorption rate of groups containing aromatic rings to fibroin was calculated from the concentration of groups containing aromatic rings in the collected supernatant liquid and the change in concentration by absorbance measurement, the adsorptivity of groups containing aromatic rings to proteins having β-sheet structures was evaluated using the following criteria.
“Evaluation A” and “Evaluation B” indicate the level at which groups containing aromatic rings adsorb strongly to proteins having a β-sheet structure, and “Evaluation C” indicates the low adsorptivity of groups containing aromatic rings.
• A: 90% or more • B: 60% or more but less than 90% • C: Less than 60%

In another experiment the target is T2, fibroin sheet (Bombyx mori, UniProt P05790).
T2 construct: purchased Sigma-Aldrich
Kind of experiment: Color intensity of modified fibroin sheet after peroxidase DAB staining. The settings on record: fibroin sheet adsorbed from 0.3 mg/mL solution; DAB staining solution 1.5 μL, 5 minutes; ImageJ; average of five sheets. The class given is biochemical. The protocol: To 0.18 g of silk fibroin powder (manufactured by Sigma-Aldrich), 3.82 g of hexafluoro--2 propanol (HFIP) was added, and the mixture was stirred at room temperature using a mix rotor. Thereafter, filtration was performed using a filter (Millex-AP, Millipore) to obtain a 4.5 wt % fibroin solution. Fibroin solution (0.1 mL) was used to prepare and collect a sheet of fibroin fibers on an aluminum dish using an electrospinning device (NANON-03, MECC).
After methanol was added to the collected sheet, methanol was removed and dried overnight. The measurement of the weight of the fibroin sheet cut into 20 mm×40 mm size confirmed that it was 1.25 μg/mm^2 fibroin sheet. […]
To the fibroin sheet modified with Compound 1 obtained in Manufacturing Example 2, a staining solution (1.5 μL) of the peroxidase staining DAB kit (Brown Stain) (manufactured by Nacalai Tesque) was added dropwise and allowed to stand for 5 minutes in a wet box. […] After drying the sheet, the sheet was read by a scanner to acquire image data. The obtained image data were measured for color intensity using ImageJ software. Five sheets were made, and the same evaluation was carried out, and the average value of the color intensity (Color Intensity, hereinafter CI value) was calculated. The calculated CI value was 59.8.

`O=C(O)CCNc1ccc(-c2nc3ccccc3s2)cc1` [Compound 2]: at silk fibroin powder, the “Adsorption rate to fibroin (%)” value is on record as 79% and the Adsorptivity entry was “B (60% or more but less than 90%)”.

Regarding `O=C(O)CCOc1ccccc1-c1nc2ccccc2s1` [Compound 4], at silk fibroin powder, the “Adsorption rate to fibroin (%)” value turned out to be 71% and the Adsorptivity result is on record as “B (60% or more but less than 90%)”.

On to “Compound 1: Thioflavin T acid bound to horseradish peroxidase (HRP); one Thioflavin T acid molecule per HRP molecule”, for which the “CI value (average color intensity)” value with fibroin sheet came to 59.8.

On to “HRP: horseradish peroxidase (manufactured by Sigma-Aldrich), unmodified comparison”, for which the “CI value (average color intensity)” value with fibroin sheet worked out at 39.5.

Thioflavin T acid [reference compound]: at silk fibroin powder, the “Adsorption rate to fibroin (%)” value came to 91% and the Adsorptivity entry is “A (90% or more)”.
